Structures can show the parent of a compound that is named as a salt.
How the values were obtained:
[1] = biological target: PCP recognition sites (PCP receptor); assay: [^3 H]TCP Radioreceptor Assay (internal screen); format: binding; conditions: whole rat brain membranes, [^3 H]TCP approx. 1 nM, room temperature 25 min; mean of at least two separate determinations
Protocol: [^3 H]TCP Radioreceptor Assay (internal screen)
[^3 H]TCP binding to PCP recognition sites was performed as described by Vignon et al. Brain Research 1983, 280, 194-197. Male Spmgue-Dawley rats were sacrificed by decapitation, and whole brains were homogenized in 10 volumes (wt/vol) of cold Tris-HCl buffer (50 mM, pH 7.7) using a Brinkmann Polytron (setting 6, 30 sec). The homogenate was centrifuged at 40,000×g for 10 min at 4° C. The supernatant was decanted, and the homogenization and centrifugation steps were repeated twice as described above. Following this, the pellet was resuspended in Tris-HCl (5 mM, pH 7.7) at a tissue concentration of 0.5-0.75 g/ml, and one ml aliquots were frozen at -70° C. unto use. The binding characteristics for PCP recognition sites were not altered by the freezing of membrane suspensions.
On the day of the assay, membrane aliquots were thawed, resuspended in fresh 5 mM Tris-HCl buffer at a tissue concentration of 1 mg/ml, and stored on ice until use. Each assay tube contained 100 μl of [^3 H]TCP at a final concentration of approximately 1 nM, 100 μl of various concentrations of the compounds of interest, 500 μl of the tissue suspension and 300 μ of buffer to a final assay volume of 1 ml and a final protein concentration of 0.5 mg/tube. Non-specific binding was defined by addition of a final concentration of 100 μM PCP to blank tubes. All tubes were incubated at room temperature for 25 min before termination of the reaction by rapid filtration over Whatman GF/B glass fiber filters that had been presoaked in a solution of 0.5% polyethyleneimine for at least 1 hr prior to use. Filters were washed with three 4 ml volumes of cold Tris buffer. Following addition of scintillation cocktail, the amount of bound radioactivity was determined by liquid scintillation spectrometry using a Beckman LS 5000 TA liquid scintillation counter with an efficiency for tritium of approximately 55%. Inhibition constants (Ki values) were calculated using the EBDA/LIGAND program (McPherson, J. Pharmacol. Meth. 1985, 14, 213-228), purchased from Elsevier/Biosoft, Inc. Results are reported as Ki values which are expressed as the mean of at least two separate determinations.

[2] = test system: NMDA-induced neurotoxicity in cultured cortical neurons; assay: Antagonism of NMDA-induced Neurotoxicity in Cultured Neurons (LDH activity); format: cell-based, Swiss-Webster mice; conditions: 500 μM NMDA for 30 minutes, LDH 24 hours after removal, day 13 cultured cortical neurons
Protocol: Antagonism of NMDA-induced Neurotoxicity in Cultured Neurons
Preparation of cultured cortical neurons
Pregnant, Swiss-Webster mice were obtained from Taconic 0 Farms (Germantown, N.Y.) and sacrificed 16 days post conception. Fetuses were removed and placed in a sterile dish containing Hank's balanced salt solution (HBSS), pH 7.4. Brain cortices were dissected, meninges were removed, the tissue was minced and placed into a solution of HBSS containing 0.25% (w/v) trypsin at 37° C. for 15 minutes. Tissue was then triturated with a sterile pasteur pipet, diluted with minimal essential media (Gibco 330-1430), pH 7.4, supplemented with 10% horse serum, 10% fetal calf serum, 2 mM l-glutamine, 21 mM d-glucose, 2.2 g/L sodium bicarbonate, 1000 U/ml penicillin, and 1,000 μg/ml streptomycin. Cells were plated onto Falcon primaria 96 well plates at a final density of 50,000 cells/well and incubated at 37° C. in the presence of 5% (v/v) carbon dioxide. After 5 days, plating media was replaced with maintenance media containing minimal essential media (Gibco 330-1430), pH 7.4, supplemented with 10% horse serum, […], 21 mM d-glucose, 2.2 g/l sodium bicarbonate, 1,000 U/ml penicillin, 1,000 μg/ml streptomycin, and 10 μM cytosine arabinoside. On days 7 and 10, media was replaced with maintenance media as above lacking the cytosine arabinoside. Experiments were conducted on day 13.
Neuroprotection Assessment
Day 13 cultured cortical neurons were washed twice with minimal essential media, pH 7.4 and then exposed for 30 minutes to 500 μM N-methyl-D-aspartic acid (NMDA) with or without varying concentrations of test agents. Dizocilpine (MK-801) at a final concentration of 10 μM MK-801 was routinely included as a positive control. MK-801 and test agents were prepared in minimal essential media supplemented with 21 mM d-glucose and 2.2 g/L sodium bicarbonate (MEM). After 30 minutes, media was replaced with MEM alone. Exposure of neurons to test agents was limited to the NMDA treatment period. […]

[3] = test system: PCP recognition sites (PCP receptor); assay: [^3 H]TCP Radioreceptor Assay (external screen); format: binding; conditions: @10 μM; whole rat forebrain membranes, 25° C., 60 minutes
Protocol: Representative compounds of the invention were also tested in an external [^3 H]TCP radioreceptor assay using the following protocol:
[^3 H]TCP Radioreceptor Assay (external screen)
A procedure similar to that described above for the [^3 H]TCP radioreceptor assay (internal screen) was utilized except that the whole rat forebrain membranes were incubated at 25° C. for 60 minutes rather than at room temperature for 25 minutes, before termination of the reaction. The results are reported as a percent (%) inhibition of binding at 10 μM.

Row | Molecule | Ki [1] | other results
1 | Brc1ccc2c(c1)C1C3CCCC3C2N2CCCCC12 (centres unmarked) [Example 4, 9-bromo-6,11 [1',2']cyclopentyl-1,2,3,4,5,6,11,11a-octahydrobenzo[b]quinolizine hydrobromide] | 43.7 nM | 
2 | Oc1cccc2c1C1C3CCCC3C2N2CCCCC12 (centres unmarked) [Example 12b, 10-hydroxy-6,11 [1',2']cyclopentyl-1,2,3,4,5,6,11,11a-octhydrobenzo[b]quinolizine hydrobromide] | 2.29 nM | 
3 | CC12c3ccccc3C(C3CCCC31)N1CCCCC12 (centres unmarked) [Example 2, 11-methyl-6,11 [1',2']cyclopentyl-1,2,3,4,5,6,11,11a-octahydrobenzo[b]quinolizine] | 40 nM | 
4 | Nc1ccc2c(c1)C1C3CCCC3C2N2CCCCC12 (centres unmarked) [Example 6, 9-amino-6,11 [1',2']cyclopentyl-1,2,3,4,5,6,11,11a-octahydrobenzo[b]quinolizine] | 11.8 nM | 
5 | c1ccc2c(c1)C1C3CCCCC3C2N2CCCCC12 (centres unmarked) [Example 1a, 6,11 [1',2']cyclohexyl-1,2,3,4,5,6,11:11a-octahydrobenzo[b]quinolizine] | 134 nM | 
6 | Oc1ccc2c(c1)C1C3CCCC3C2N2CCCCC12 (centres unmarked) [Example 10b, 9-hydroxy-6:11 [1',2']cyclopentyl-1,2,3,4,5,6,11,11a-octahydrobenzo [b]quinolizine hydrobromide] | 2.31 nM | IC50 ([2]; Mus musculus, Cortical neurone): 42 nM
7 | c1ccc2c(c1)C1C3CCCC3C2N2CCCCC12 (centres unmarked) [Example 9a, 6,11 [1',2']cyclopentyl-1,2,3,4,5,6,11,11a-octahydrobenzo[b]quinolizine hydrobromide] | 15.4 nM | IC50 ([2]; Mus musculus, Cortical neurone): 100 nM; [^3 H]TCP (external screen) Percent inhibition [3]: 100%
8 | CC12c3ccccc3C(C3CCCC31)C1CCCCN12 (centres unmarked) [Example 13, 6-methyl-6,11 [1',2']cyclopentyl-1,2,3,4,5,6,11,11a-octahydrobenzo [b]quinolizine] | 8.87 nM | 
9 | Oc1ccc2c(c1)C1C3CCCC3C2C2CCCCN21 (centres unmarked) [Example 3b, 8-hydroxy-6,11 [1',2']cyclopentyl-1,2,3,4,5,6,11,11a-octahydrobenzo[b]quinolizine hydrobromide] | 27.9 nM | 
10 | [O-][N+]12CCCCC1C1c3ccccc3C2C2CCCC21 (centres unmarked) [Example 14, 6,11 [1',2']cyclopentyl-1,2,3,4,5,6,11,11a-octahydrobenzo[b]quinolizine-5-oxide] | 33.1 nM | 
11 | c1ccc2c(c1)C1c3ccccc3C2N2CCCCC12 (centres unmarked) [Example 1b, 6,11 [1',2']benzeno-1,2,3,4,5,6,11,11a-octahydrobenzo[b]quinolizine] | 333 nM | 
12 | c1ccc2c(c1)C1C3CCCCC3C2N2CCCCC12 (centres unmarked) [Example 11, 6,11 [1',2']cyclohexyl-1,2,3,4,5,6,11,11a-octahydrobenzo[b]quinolizine] | 219 nM | 
13 | C[N+]12CCCCC1C1c3ccccc3C2C2CCCC21 (centres unmarked) [Example 15, 5-methyl-6,11 [1',2']cyclopentyl-1,2,3,4,5,6,11,11a-octahydrobenzo[b]quinolizinium bromide] | 22.3 nM | 
14 | 6,11 [2',3']tetrahydropyranyl-1,2,3,4,5,6,11,11a-octahydrobenzo[b]quinolizine hydrobromide [Example 7] | 1420 nM | 
15 | Fc1ccc2c(c1)C1C3CCCC3C2N2CCCCC12 (centres unmarked) [Example 5, 9-fluoro-6,11[1',2']cyclopentyl-1,2,3,4,5,6,11,11a-octahydrobenzo[b]quinolizine fumarate] | 20 nM | 
16 | 6,11 [2',3']tetrahydrofuranyl-1,2,3,4,5,6,11,11a-octahydrobenzo [b]quinolizine hydrobromide [Example 8] | 606 nM | IC50 [2]: 12200 nM

Reference: patent US5434159A, “6,11-cyclyl-1,2,3,4,5,6,11,11a-octahydrobenzo[b]quinolines and compositions and method of use thereof” (Sterling Winthrop Inc., priority 1994, dated 1995)
